Data reported in US12180187B2, “1-phenyl-5-azinylpyrazolyl-3-oxyalkyl acids and their use for controlling unwanted plant growth” (BAYER AKTIENGESELLSCHAFT, priority 2019, dated 2024).

How the values were obtained:
DIGSA [1] = test: Post-emergence action at 320 g/ha against DIGSA; assay type: in vivo, Digitaria sanguinalis; conditions: Digitaria sanguinalis, 504 h, dosage 320 g/ha, visual rating about 3 weeks after treatment vs untreated controls (100% = plants died)
Excerpt: (§1) Accordingly, the compounds of the invention have good herbicidal action against a broad spectrum of weed grasses and broad-leaved weeds and are therefore suitable for controlling unwanted vegetation by the post-emergence method. • b) Seeds of monocotyledonous and dicotyledonous weeds and crop plants are placed in sandy loam in plastic or organic planting pots, covered with soil and cultivated in a greenhouse under controlled growth conditions. 2 to 3 weeks after sowing, the test plants are treated at the one-leaf stage. The compounds of the invention, formulated in the form of wettable powders (WP) or as emulsion concentrates (EC), are then sprayed onto the green parts of the plants as aqueous suspension or emulsion with addition of 0.5% additive at a water application rate of 600 l/ha (converted). After the test plants have been kept in the greenhouse under optimum growth conditions for about 3 weeks, the activity of the preparations is rated visually in comparison to untreated controls. For example, 100% activity=the plants have died, 0% activity=like control plants. Tables 39 to 49 below show the effects of selected compounds of the general formula (I) according to Tables 1 and 2 on various harmful plants and at an application rate corresponding to 320 g/ha, which were obtained by the experimental procedure mentioned above.

ECHCG = test: Post-emergence action at 320 g/ha against ECHCG; assay type: in vivo, Echinochloa crus-galli; conditions: dosage 320 g/ha, visual rating about 3 weeks after treatment vs untreated controls (100% = plants died)
Excerpt: as §1

AMARE [2] = test: Post-emergence action at 320 g/ha against AMARE; assay type: in vivo, Amaranthus retroflexus; conditions: Amaranthus retroflexus, 504 h, visual rating about 3 weeks after treatment vs untreated controls
Excerpt: as §1

POLCO [3] = test: Pre-emergence action at 320 g/ha against POLCO; assay type: in vivo, Fallopia convolvulus (Polygonum convolvulus); conditions: Fallopia convolvulus, 504 h, visual scoring after about 3 weeks vs untreated controls
In short: (§2)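 Greenhouse pot trial in which formulated compound (wettable powder or emulsion concentrate) goes onto the soil surface right after sowing, at a spray volume of 600 l/ha including 0.5% additive. Effects are judged visually after about 3 weeks (0% = like control, 100% = dead).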

SETVI [4] = test: Post-emergence action at 320 g/ha against SETVI; assay type: in vivo, Setaria viridis; conditions: visual rating about 3 weeks after treatment vs untreated controls
Excerpt: as §1

POLCO [5] = test: Post-emergence action at 320 g/ha against POLCO; assay type: in vivo, Fallopia convolvulus (Polygonum convolvulus); conditions: Fallopia convolvulus, 504 h, visual rating about 3 weeks after treatment vs untreated controls
Excerpt: as §1

SETVI [6] = test: Pre-emergence action at 320 g/ha against SETVI; assay type: in vivo, Setaria viridis; conditions: Setaria viridis, 504 h, visual scoring after about 3 weeks vs untreated controls
In short: as §2

ALOMY [7] = test: Post-emergence action against ALOMY, 320 g/ha; assay type: in vivo, Alopecurus myosuroides; conditions: dosage 320 g/ha, visual rating about 3 weeks after treatment vs untreated controls (100% = plants died)
Excerpt: as §1

AVEFA = test: Post-emergence action at 320 g/ha against AVEFA; assay type: in vivo; conditions: Avena fatua, 504 h, visual rating about 3 weeks after treatment vs untreated controls
Excerpt: as §1

VIOTR [8] = test: Pre-emergence action at 320 g/ha against VIOTR; assay type: in vivo, Viola tricolor; conditions: Viola tricolor, 504 h, dosage 320 g/ha
In short: as §2

DIGSA [9] = test: Pre-emergence action at 320 g/ha against DIGSA; assay type: in vivo, Digitaria sanguinalis; conditions: Digitaria sanguinalis, 504 h, visual scoring after about 3 weeks vs untreated controls
In short: as §2

ALOMY [10] = test: Pre-emergence action at 320 g/ha against ALOMY; assay type: in vivo, Alopecurus myosuroides; conditions: Alopecurus myosuroides, 504 h, scored visually after about 3 weeks vs untreated controls (100% = plants have died)
In short: as §2

MATIN = test: Pre-emergence action at 320 g/ha against MATIN; assay type: in vivo, Tripleurospermum inodorum (Matricaria inodora); conditions: Tripleurospermum inodorum, 504 h, visual scoring after about 3 weeks vs untreated controls
In short: as §2

AMARE [11] = test: Pre-emergence action at 320 g/ha against AMARE; assay type: in vivo, Amaranthus retroflexus; conditions: Amaranthus retroflexus, 504 h, visual scoring after about 3 weeks vs untreated controls
In short: as §2

VIOTR [12] = test: Post-emergence action at 320 g/ha against VIOTR; assay type: in vivo, Viola tricolor; conditions: Viola tricolor, 504 h, visual rating about 3 weeks after treatment vs untreated controls
Excerpt: as §1

LOLRI = test: Pre-emergence action at 320 g/ha against LOLRI; assay type: in vivo, Lolium rigidum; conditions: Lolium rigidum, 504 h, visual scoring after about 3 weeks vs untreated controls
In short: as §2

COC(=O)[C@@H](C)Oc1nn(-c2ccccc2F)c(-c2ccc(F)nc2)c1Br [VII-004, Methyl (2R)-2-{[4-bromo-1-(2-fluorophenyl)-5-(6-fluoropyridin-3-yl)-1H-pyrazol-3-yl]oxy}propanoate]
80%: pest or weed control at 320 g/ha (POLCO [5]) | pest or weed control at 320 g/ha (MATIN) | pest or weed control at 320 g/ha (LOLRI)
90%: pest or weed control at 320 g/ha (DIGSA [1]) | Post-emergence action at 320 g/ha against ECHCG in % (ECHCG) | pest or weed control at 320 g/ha (AMARE [2]) | pest or weed control at 320 g/ha (POLCO [3]) | Post-emergence action against SETVI in % (SETVI [4]) | Post-emergence action against ALOMY (ALOMY [7]) | pest or weed control at 320 g/ha (AVEFA) | pest or weed control at 320 g/ha (ALOMY [10]) | pest or weed control at 320 g/ha (AMARE [11]) | pest or weed control at 320 g/ha (VIOTR [12])
100%: pest or weed control at 320 g/ha (SETVI [6]) | pest or weed control at 320 g/ha (VIOTR [8]) | pest or weed control at 320 g/ha (DIGSA [9])
